Laboratory results reported in patent publication US5621133A (priority 1995, dated 1997).
Counter-ions that a name gives are not always drawn.

How the values were obtained:
dopamine D-1 receptor [1] = target: dopamine D-1 receptor (Rattus norvegicus, UniProt P18901); assay: biochemical; details: D-1 Ki, rat caudate, [125I]SCH-23982
Description: The compounds compete with the radiolabeled ligand for occupancy of the receptors and the molar potency of each compound was quantified.
The Ki values are inversely proportional to the affinity of the compound for the receptor.

dopamine D-1 receptor [2] = details: for Intrinsic Activity (adenylate cyclase assay): dopamine = 100, goldfish retina or rat striatum; for EC50: read-out: EC50 (agonist activity in adenylate cyclase assay), tissue from goldfish retina or rat striatum
Description: In order to determine agonist activity, cell-free tissue homogenates are incubated in an ionic buffer solution containing ATP and the compound being evaluated. The tissue was obtained from either goldfish retina or rat striatum.

dopamine D-2 receptor = dopamine D-2 receptor (Rattus norvegicus, UniProt P61169); assay: biochemical; format: binding; details: rat caudate, [125I]-p-aminophenylethyl spiroperidol; read-out: D-2 Ki
Description: Homogenized rat caudate was the source of the D-2 receptors. […] The molar affinity of the compound for the receptor binding site was calculated by the same method used for the D-1 receptor assay, assuming a competitive interaction between the compound and the radiolabeled ligand.

Chain of dopamine D-2 receptor (P61169 whole entry): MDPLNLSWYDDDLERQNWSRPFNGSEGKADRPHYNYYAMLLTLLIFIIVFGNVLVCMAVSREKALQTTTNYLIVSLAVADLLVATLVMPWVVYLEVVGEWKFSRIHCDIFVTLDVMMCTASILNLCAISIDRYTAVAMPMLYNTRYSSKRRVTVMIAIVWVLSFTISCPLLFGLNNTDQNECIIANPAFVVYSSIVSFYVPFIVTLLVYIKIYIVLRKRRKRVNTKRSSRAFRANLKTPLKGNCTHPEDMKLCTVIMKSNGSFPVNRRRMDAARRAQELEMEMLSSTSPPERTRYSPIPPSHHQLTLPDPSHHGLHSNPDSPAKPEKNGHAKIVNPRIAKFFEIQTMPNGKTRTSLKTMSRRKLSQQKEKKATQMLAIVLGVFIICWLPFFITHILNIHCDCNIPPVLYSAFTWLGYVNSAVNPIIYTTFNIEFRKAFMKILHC
Chain of dopamine D-1 receptor (Rattus norvegicus, UniProt P18901) (P18901 whole entry): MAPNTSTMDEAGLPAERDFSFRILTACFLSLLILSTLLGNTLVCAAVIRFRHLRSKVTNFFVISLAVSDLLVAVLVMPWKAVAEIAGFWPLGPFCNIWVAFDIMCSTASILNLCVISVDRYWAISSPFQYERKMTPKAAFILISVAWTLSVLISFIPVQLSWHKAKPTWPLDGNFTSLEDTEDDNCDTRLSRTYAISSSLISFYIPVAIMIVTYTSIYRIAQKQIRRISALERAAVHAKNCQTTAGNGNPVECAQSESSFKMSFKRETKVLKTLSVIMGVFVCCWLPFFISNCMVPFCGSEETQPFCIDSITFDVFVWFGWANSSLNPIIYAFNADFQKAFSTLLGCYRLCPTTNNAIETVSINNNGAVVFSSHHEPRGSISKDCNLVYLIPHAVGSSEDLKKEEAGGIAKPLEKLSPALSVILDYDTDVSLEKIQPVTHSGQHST

Q: What does the source list for C=CCNC[C@H]1O[C@@H](C23CC4CC(CC(C4)C2)C3)Cc2c1ccc(O)c2O (relative stereo) [Example 117]?
A: Ki (dopamine D-1 receptor [1]): 1200 nM; Intrinsic Activity (adenylate cyclase assay) (dopamine D-1 receptor [2]): 60; EC50 (dopamine D-1 receptor [2]): 80 nM; Ki (dopamine D-2 receptor): 1000 nM

Q: C#CCNC[C@H]1O[C@@H](C2CCCCC2)Cc2c1ccc(O)c2O (relative stereo) [Example 118] was tested. Which Ki (dopamine D-1 receptor [1]) did it give?
A: 2500 nM

Q: What about the “Intrinsic Activity (adenylate cyclase assay)” value (shortened to “Intrinsic Activity”) (dopamine D-1 receptor [2]) of the same compound?
A: 87

Q: What about the EC50 (dopamine D-1 receptor [2]) of the same compound?
A: 56 nM

Q: And the Ki (dopamine D-2 receptor)?
A: 6700 nM

Q: What does the source list for C=CCNC[C@H]1O[C@@H](CCCC)Cc2c1ccc(O)c2O (relative stereo) [Example 125]?
A: Ki (dopamine D-1 receptor [1]): 2700 nM; Intrinsic Activity (adenylate cyclase assay) (dopamine D-1 receptor [2]): 63; EC50 (dopamine D-1 receptor [2]): 1000 nM; Ki (dopamine D-2 receptor): > 10000 nM

Q: C=CCC[C@H]1Cc2c(ccc(O)c2O)[C@@H](CNC)O1 (relative stereo) [Example 132] was tested. Which Ki (dopamine D-1 receptor [1]) did it give?
A: 86 nM

Q: And the “Intrinsic Activity” value (dopamine D-1 receptor [2])?
A: 106

Q: And the EC50 (dopamine D-1 receptor [2])?
A: 870 nM

Q: And the Ki (dopamine D-2 receptor)?
A: 640 nM

Q: Which results are given for CCCC[C@H]1Cc2c(ccc(O)c2O)[C@@H](CNC)O1 (relative stereo) [Example 135]?
A: Ki (dopamine D-1 receptor [1]): 180 nM; Intrinsic Activity (adenylate cyclase assay) (dopamine D-1 receptor [2]): 136; EC50 (dopamine D-1 receptor [2]): 7 nM; Ki (dopamine D-2 receptor): 1600 nM

Q: Which results are given for CNC[C@H]1O[C@@H](c2ccc(F)cc2)Cc2c1ccc(O)c2O (relative stereo) [Example 136]?
A: Ki (dopamine D-1 receptor [1]): 100 nM; Intrinsic Activity (adenylate cyclase assay) (dopamine D-1 receptor [2]): 133; EC50 (dopamine D-1 receptor [2]): 5 nM; Ki (dopamine D-2 receptor): 2500 nM

Q: What does the source list for CNC[C@H]1O[C@@H](Cc2ccc(OC)cc2)Cc2c1ccc(O)c2O (relative stereo) [Example 137]?
A: Ki (dopamine D-1 receptor [1]): 2900 nM; Intrinsic Activity (adenylate cyclase assay) (dopamine D-1 receptor [2]): 93; EC50 (dopamine D-1 receptor [2]): 1000 nM; Ki (dopamine D-2 receptor): 550 nM

Q: For CNC[C@H]1O[C@@H](CC2CCCCC2)Cc2c1ccc(O)c2O (relative stereo) [Example 140], which Ki (dopamine D-1 receptor [1]) is on record?
A: 60 nM

Q: And the “Intrinsic Activity” value (dopamine D-1 receptor [2])?
A: 113

Q: What about the EC50 (dopamine D-1 receptor [2]) of the same compound?
A: 8.4 nM

Q: What about the Ki (dopamine D-2 receptor) of the same compound?
A: 1500 nM

Q: For CNC[C@H]1C[C@@H](c2ccccc2)Cc2c1ccc(O)c2O (relative stereo) [Example 150, [1,3-cis]5,6,Dihydroxy-1-(N-methyl)aminomethyl-3-phenyl-1,2,3,4-tetrahydro-naphthalene], which Ki (dopamine D-1 receptor [1]) is on record?
A: 25 nM

Q: And the “Intrinsic Activity” value (dopamine D-1 receptor [2])?
A: 102

Q: And the EC50 (dopamine D-1 receptor [2])?
A: 6 nM

Q: And the Ki (dopamine D-2 receptor)?
A: 12000 nM

Q: For NC[C@H]1Cc2c(ccc(O)c2O)[C@@H](CN)O1 (relative stereo) [Example 154, [1,3-cis]1,3-Bis(aminomethyl)-3,4-dihydro-5,6-dihydroxy-1H-2-benzopyran Dihydrochloride], which Ki (dopamine D-1 receptor [1]) is on record?
A: 1400 nM

Q: What about the “Intrinsic Activity” value (dopamine D-1 receptor [2]) of the same compound?
A: 95

Q: And the EC50 (dopamine D-1 receptor [2])?
A: 100 nM

Q: And the Ki (dopamine D-2 receptor)?
A: 17000 nM

Q: With NC[C@H]1O[C@@H](CO)Cc2c1ccc(O)c2O (relative stereo) [Example 155, [1,3-cis]1-Aminomethyl-3,4-dihydro-5,6-dihydroxy-3-hydroxymethyl-1H-2-benzopyran Hydrochloride] as the compound, how does the Ki (dopamine D-1 receptor [1]) read?
A: 2600 nM

Q: And the “Intrinsic Activity” value (dopamine D-1 receptor [2])?
A: 95

Q: What about the EC50 (dopamine D-1 receptor [2]) of the same compound?
A: 150 nM

Q: What about the Ki (dopamine D-2 receptor) of the same compound?
A: 8200 nM

Q: For NC[C@H]1O[C@@H](CN2CCCC2)Cc2c1ccc(O)c2O (relative stereo) [Example 156, [1,3-cis]1-Aminomethyl-3,4-dihydro-5,6-dihydroxy-3-pyrrolidinylmethyl-1H-2-benzopyran Dihydrochloride], which Ki (dopamine D-1 receptor [1]) is on record?
A: 6300 nM

Q: What about the “Intrinsic Activity” value (dopamine D-1 receptor [2]) of the same compound?
A: 127

Q: And the EC50 (dopamine D-1 receptor [2])?
A: 9500 nM

Q: What about the Ki (dopamine D-2 receptor) of the same compound?
A: 16000 nM

Q: How did the Ki (dopamine D-1 receptor [1]) turn out when NC[C@H]1O[C@@H](CN2CCOCC2)Cc2c1ccc(O)c2O (relative stereo) [Example 157] was run?
A: 1300 nM

Q: And the “Intrinsic Activity” value (dopamine D-1 receptor [2])?
A: 111

Q: What about the EC50 (dopamine D-1 receptor [2]) of the same compound?
A: 520 nM

Q: And the Ki (dopamine D-2 receptor)?
A: 16000 nM

Q: How did the Ki (dopamine D-1 receptor [1]) turn out when NC[C@H]1O[C@@H](CN2CCCCC2)Cc2c1ccc(O)c2O (relative stereo) [Example 158] was run?
A: 2300 nM

Q: And the “Intrinsic Activity” value (dopamine D-1 receptor [2])?
A: 100

Q: And the EC50 (dopamine D-1 receptor [2])?
A: 330 nM

Q: And the Ki (dopamine D-2 receptor)?
A: 6000 nM

Q: For NCC[C@H]1Cc2c(ccc(O)c2O)[C@@H](CN)O1 (relative stereo) [Example 159], which Ki (dopamine D-1 receptor [1]) is on record?
A: 3100 nM

Q: And the “Intrinsic Activity” value (dopamine D-1 receptor [2])?
A: 129

Q: What about the EC50 (dopamine D-1 receptor [2]) of the same compound?
A: 150 nM

Q: What about the Ki (dopamine D-2 receptor) of the same compound?
A: 3700 nM

Q: Which Ki (dopamine D-1 receptor [1]) does the source give for NC[C@H]1O[C@@H](CCO)Cc2c1ccc(O)c2O (relative stereo) [Example 160] here?
A: 1300 nM

Q: And the “Intrinsic Activity” value (dopamine D-1 receptor [2])?
A: 136

Q: What about the EC50 (dopamine D-1 receptor [2]) of the same compound?
A: 140 nM

Q: And the Ki (dopamine D-2 receptor)?
A: 1700 nM

Q: Which results are given for CC(=O)NC[C@H]1Cc2c(ccc(O)c2O)[C@@H](CN)O1 (relative stereo) [Example 161]?
A: Ki (dopamine D-1 receptor [1]): 1300 nM; Intrinsic Activity (adenylate cyclase assay) (dopamine D-1 receptor [2]): 58; EC50 (dopamine D-1 receptor [2]): 450 nM; Ki (dopamine D-2 receptor): 170 nM

Q: With NC[C@H]1O[C@@H](CNC(=O)c2ccccc2)Cc2c1ccc(O)c2O (relative stereo) [Example 164] as the compound, how does the Ki (dopamine D-1 receptor [1]) read?
A: 3600 nM

Q: And the “Intrinsic Activity” value (dopamine D-1 receptor [2])?
A: 96

Q: What about the EC50 (dopamine D-1 receptor [2]) of the same compound?
A: 200 nM

Q: What about the Ki (dopamine D-2 receptor) of the same compound?
A: 250 nM

Q: What does the source list for CC(C)(C)C(=O)NC[C@H]1Cc2c(ccc(O)c2O)[C@@H](CN)O1 (relative stereo) [Example 166]?
A: Ki (dopamine D-1 receptor [1]): 4800 nM; Intrinsic Activity (adenylate cyclase assay) (dopamine D-1 receptor [2]): 97; EC50 (dopamine D-1 receptor [2]): 180 nM; Ki (dopamine D-2 receptor): 2400 nM

Q: How did the Ki (dopamine D-1 receptor [1]) turn out when NC[C@H]1O[C@@H](CNC(=O)c2ccc(Br)cc2)Cc2c1ccc(O)c2O (relative stereo) [Example 167] was run?
A: 310 nM

Q: And the “Intrinsic Activity” value (dopamine D-1 receptor [2])?
A: 125

Q: And the EC50 (dopamine D-1 receptor [2])?
A: 120 nM

Q: And the Ki (dopamine D-2 receptor)?
A: 2.1 nM

Q: NC[C@H]1O[C@@H](CNC(=O)c2ccco2)Cc2c1ccc(O)c2O (relative stereo) [Example 168] was tested. Which Ki (dopamine D-1 receptor [1]) did it give?
A: 17000 nM

Q: And the “Intrinsic Activity” value (dopamine D-1 receptor [2])?
A: 103

Q: And the EC50 (dopamine D-1 receptor [2])?
A: 270 nM

Q: And the Ki (dopamine D-2 receptor)?
A: > 10000 nM

Q: CCCC(=O)NC[C@@H]1Cc2c(ccc(O)c2O)[C@H](CN)O1 (relative stereo) [Example 169] was tested. Which Ki (dopamine D-1 receptor [1]) did it give?
A: 8000 nM

Q: What about the “Intrinsic Activity” value (dopamine D-1 receptor [2]) of the same compound?
A: 150

Q: And the EC50 (dopamine D-1 receptor [2])?
A: 200 nM

Q: What about the Ki (dopamine D-2 receptor) of the same compound?
A: > 10000 nM

Q: NC[C@H]1O[C@@H](CNC(=O)c2cccnc2)Cc2c1ccc(O)c2O (relative stereo) [Example 170] was tested. Which Ki (dopamine D-1 receptor [1]) did it give?
A: 570 nM

Q: What about the “Intrinsic Activity” value (dopamine D-1 receptor [2]) of the same compound?
A: 151

Q: What about the EC50 (dopamine D-1 receptor [2]) of the same compound?
A: 130 nM

Q: And the Ki (dopamine D-2 receptor)?
A: 140 nM

Q: With CC(C)C(=O)NC[C@H]1Cc2c(ccc(O)c2O)[C@@H](CN)O1 (relative stereo) [Example 171] as the compound, how does the Ki (dopamine D-1 receptor [1]) read?
A: 530 nM

Q: What about the “Intrinsic Activity” value (dopamine D-1 receptor [2]) of the same compound?
A: 124

Q: What about the EC50 (dopamine D-1 receptor [2]) of the same compound?
A: 180 nM

Q: And the Ki (dopamine D-2 receptor)?
A: 810 nM

Q: Which Ki (dopamine D-1 receptor [1]) does the source give for CC(=O)NCC[C@H]1Cc2c(ccc(O)c2O)[C@@H](CN)O1 (relative stereo) [Example 172] here?
A: 1100 nM

Q: And the “Intrinsic Activity” value (dopamine D-1 receptor [2])?
A: 116

Q: What about the EC50 (dopamine D-1 receptor [2]) of the same compound?
A: 220 nM

Q: What about the Ki (dopamine D-2 receptor) of the same compound?
A: > 10000 nM

Q: For CNC[C@H]1O[C@@H](CCN)Cc2c1ccc(O)c2O (relative stereo) [Example 173], which Ki (dopamine D-1 receptor [1]) is on record?
A: 3600 nM

Q: What about the “Intrinsic Activity” value (dopamine D-1 receptor [2]) of the same compound?
A: 63

Q: And the EC50 (dopamine D-1 receptor [2])?
A: 390 nM

Q: What about the Ki (dopamine D-2 receptor) of the same compound?
A: 14000 nM

Q: Which results are given for CNC[C@H]1O[C@@H](CCO)Cc2c1ccc(O)c2O (relative stereo) [Example 174]?
A: Ki (dopamine D-1 receptor [1]): 1200 nM; Intrinsic Activity (adenylate cyclase assay) (dopamine D-1 receptor [2]): 90; EC50 (dopamine D-1 receptor [2]): 65 nM; Ki (dopamine D-2 receptor): 3500 nM

Q: What does the source list for NC[C@@H]1O[C@H](C2CCCCC2)CCc2c1ccc(O)c2O (relative stereo) [Example 176, [1,3-cis]1-Aminomethyl-3-cyclohexyl-6,7-dihydroxy-1,3,4,5-tetrahydro-2-benzoxepin Hydrochloride]?
A: Ki (dopamine D-1 receptor [1]): 650 nM; Intrinsic Activity (adenylate cyclase assay) (dopamine D-1 receptor [2]): 90; EC50 (dopamine D-1 receptor [2]): 320 nM; Ki (dopamine D-2 receptor): 2600 nM

Q: For Cc1cc2c(c(O)c1O)C[C@@H](C1CCCCC1)O[C@H]2CN (relative stereo) [Example 177, [1,3-cis]1-Aminomethyl-3-cyclohexyl-3,4-dihydro-5,6-dihydroxy-7-methyl-1H-2-benzopyran Hydrochloride], which Ki (dopamine D-1 receptor [1]) is on record?
A: 130 nM

Q: What about the “Intrinsic Activity” value (dopamine D-1 receptor [2]) of the same compound?
A: 62

Q: And the EC50 (dopamine D-1 receptor [2])?
A: 170 nM

Q: What about the Ki (dopamine D-2 receptor) of the same compound?
A: 6600 nM
